How the values were obtained:
Type in all cases: cell-based, human
HCT116 [1] = test: Sensitivity of colorectal cancer cells to 5-FU
DLD-1 [2] = test: Sensitivity of colorectal cancer cells to 5-FU
HT29 = test: MTS assay cell viability, 48 hours L-OHP exposure; conditions: HT29, 48 hours exposure, read-out: IC50 value (L-OHP concentration at which cell growth is inhibited by 50%)
Text: (§1) Ten human colorectal cancer cell lines (DLD-1, HCT15, HCT116, HT29, Lovo, LS174T, SW480, SW620, SW1116, and WiDr) were employed. HCT116 and HT29 were obtained from Kabushiki Kaisha Yakult Honsha. DLD-1, Lovo, SW480, SW1116, and WiDr were obtained from Dainippon Sumitomo Pharma Co., Ltd. HCT15 and LS174T were obtained from Cell Resource Center for Biomedical Research, Institute of Development, Aging and Cancer, Tohoku University. SW620 was obtained from Summit Pharmaceuticals International Corporation.
(§2) Cancer cells of each cell line were exposed to 0- to 1,000-μmol/L L-OHP for 48 hours and after drug exposure, cell viability was determined by means of an MTS assay (CellTiter96™ AQueous One Solution Cell Proliferation Assay, Promega). IC50 value (L-OHP concentration at which cell growth is inhibited by 50% as compared with L-OHP-non-treated sample) was calculated, and sensitivity of each cell line to L-OHP was evaluated by the IC50 value as an index.

LS174T = test: MTS assay cell viability, 48 hours L-OHP exposure
Text: as §1, §2

DLD-1 [3] = test: MTS assay cell viability, 48 hours L-OHP exposure; conditions: DLD-1, 48 hours exposure, read-out: IC50 value (L-OHP concentration at which cell growth is inhibited by 50%)
Text: as §1, §2

Lovo = test: MTS assay cell viability, 48 hours L-OHP exposure; conditions: 48 hours exposure, read-out: IC50 value (L-OHP concentration at which cell growth is inhibited by 50%)
Text: as §1, §2

WiDr = test: MTS assay cell viability, 48 hours L-OHP exposure; conditions: 48 hours exposure, read-out: IC50 value (L-OHP concentration at which cell growth is inhibited by 50%)
Text: as §1, §2

SW620 = test: MTS assay cell viability, 48 hours L-OHP exposure
Text: as §1, §2

SW480 = test: MTS assay cell viability, 48 hours L-OHP exposure; conditions: SW480, 48 hours exposure, read-out: IC50 value (L-OHP concentration at which cell growth is inhibited by 50%)
Text: as §1, §2

SW1116 = test: MTS assay cell viability, 48 hours L-OHP exposure; conditions: SW1116, 48 hours exposure, read-out: IC50 value (L-OHP concentration at which cell growth is inhibited by 50%)
Text: as §1, §2

HCT15 = test: MTS assay cell viability, 48 hours L-OHP exposure
Text: as §1, §2

HCT116 [4] = test: MTS assay cell viability, 48 hours L-OHP exposure; conditions: HCT116, 48 hours exposure, read-out: IC50 value (L-OHP concentration at which cell growth is inhibited by 50%)
Text: as §1, §2

HCT116 and DLD-1 cells = test: CE-TOFMS metabolomic analysis of intracellular metabolites after exposure to L-OHP; conditions: 10 μM L-OHP, 24-hour exposure
Description: Among the cell lines employed in Example 1, two human colorectal cancer cell lines (HCT116 and DLD-1) were employed. Cell culturing was performed by means of a φ100 mm/Tissue Culture Dish (IWAKI) with a medium (Dulbecco's modified Eagle's Medium (DMEM) containing 10% fetal bovine serum (product of Invitrogen) at 37° C. under 5% CO2 conditions.
The two colorectal cancer cells were exposed to L-OHP by changing the culture medium to a medium containing L-OHP at 10 μmol/L. The same culture was performed in an L-OHP-free medium (control group). After exposure to L-OHP (0 hr, 4 hr, 12 hr, 24 hr, and 48 hr), the cells were washed on ice with 5% mannitol (4° C.). Immediately thereafter, methanol (4° C., containing an internal standard) was added to the washed cells, to thereby inactivate present enzymes, and the cells were stored at −80° C. Separately, cells for cell count were provided in addition to the cells from which metabolites were extracted, and then subjected to the same treatment before performing cell count. The data were employed in correction of the cell counts. […]
Comprehensive analysis of intracellular metabolites was performed by means of a capillary electrophoresis-time-of-flight-type mass spectrometer (CE-TOFMS) (product of Agilent Technologies). […] Metabolites detected at m/z values of 50 to 1,000 were simultaneously quantitated.

Row | Compound | sensitivity of the cell line to 5-FU (HCT116 [1]) | sensitivity of the cell line to 5-FU (DLD-1 [2]) | IC50 (HT29) [µM] | sensitivity group of the cell line to L-OHP on the basis of the MTS assay (LS174T) | IC50 (DLD-1 [3]) [µM] | IC50 (Lovo) [nM] | IC50 (WiDr) [µM] | sensitivity group of the cell line to L-OHP on the basis of the MTS assay (SW620) | IC50 (SW480) [nM] | IC50 (SW1116) [µM] | sensitivity group of the cell line to L-OHP on the basis of the MTS assay (HCT15) | IC50 (HCT116 [4]) [nM] | ratio (HCT116/DLD-1) of IMP intracellular level after exposure relative to control group (HCT116 and DLD-1 cells; IMP) | ratio (HCT116/DLD-1) of intracellular level after exposure relative to control group, each metabolite (HCT116 and DLD-1 cells; dTMP, CMP, UMP, GMP, CDP, UDP, dCTP, CTP, UTP, GTP, NADP+, ATP and/or dGTP)
1 | O=c1[nH]cc(F)c(=O)[nH]1 [5-FU, fluorouracil] | high-sensitivity | low-sensitivity | – | – | – | – | – | – | – | – | – | – | – | –
2 | O=C1[O][Pt]2([NH][C@@H]3CCCC[C@H]3[NH]2)[O]C1=O [L-OHP, (SP-4-2)-[(1R,2R)-cyclohexane-1,2-diamine-κN,κN′][ethanedioato (2-)-κO^1,κO^2]platinum] | – | – | 23.9 ± 9.29 | low-sensitive | 16.9 ± 6.31 | 720 ± 120 | 17.3 ± 5.24 | high-sensitive | 650 ± 70 | 26.4 ± 4.12 | high-sensitive | 890 ± 330 | 0.26 | ≥ 1.2
